Assay type in all cases: cell-based
Experiment [1] deals with Escherichia coli (ATCC 25922). Kind of experiment: Antibacterial test (MIC), comparison bacteria. The settings on record: for MIC: ATCC25922, Gram negative, read-out: minimum inhibitory concentration (MIC). How it is done:
(§1) ATCC43504 which was a standard bacterial strain was used as Helicobacter pylori (H. pylori) to perform the test in vitro in a Columbia agar medium. The bacteria were cultured at 37° C. and a pH of 7.0 for three days. The minimum inhibitory concentration (MIC, μg/ml) was found on the fourth day. Each sample was dissolved in 1% DMSO to use. […] As bacteria for comparison, Gram negative bacteria, for example, E. coli (ATCC 10536 ATCC 25922), Klebsiella pneumonia (ATCC 10031), Proteus vulgaris (ATCC 13315), Pseudomonas aeruginosa (ATCC 9027) and Salmonella typhimurium (ATCC 13311) were used and Gram positive bacteria, for example, Staphylococcus aureus, MRSA (ATCC 33591), Staphylococcus epidermidis (ATCC 12228), Streptococcus pneumonia (ATCC 6301), Mycobacterium ranae (ATCC 110) and Enterococcus faecalis (VRE, ATCC 51575) were used.
(§2) The values in each table show minimum inhibitory concentrations (MIC, μg/ml).

In experiment [2] the test system is Pseudomonas aeruginosa (ATCC 9027). Kind of experiment: Antibacterial test (MIC), comparison bacteria. As to conditions: for MIC: ATCC9027, Gram negative, read-out: minimum inhibitory concentration (MIC); for minimum inhibitory concentration (MIC): Gram negative. How it is done: as §1, §2
In experiment [3] the test system is Mycobacterium ranae (ATCC 110). Kind of experiment: Antibacterial test (MIC), comparison bacteria. As to conditions: for MIC: ATCC110, Gram positive, read-out: minimum inhibitory concentration (MIC). How it is done: as §1, §2
In experiment [4] the test system is Staphylococcus aureus (MRSA, ATCC 33591). In words: Antibacterial test (MIC), comparison bacteria. As to conditions: Gram positive; for MIC: read-out: minimum inhibitory concentration (MIC). As to the method: as §1, §2
For experiment [5], the system named is Proteus vulgaris (ATCC 13315). Kind of experiment: Antibacterial test (MIC), comparison bacteria. The settings on record: for MIC: ATCC13315, Gram negative, read-out: minimum inhibitory concentration (MIC). As to the method:
as §1, §2

The subject of experiment [6] is Enterococcus faecalis (VRE, ATCC 51575). Kind of experiment: Antibacterial test (MIC), comparison bacteria. The settings on record: Gram positive; for MIC: read-out: minimum inhibitory concentration (MIC). As to the method:
as §1, §2

Experiment [7] has as its system Escherichia coli (ATCC 10536). In words: Antibacterial test (MIC), comparison bacteria. The settings on record: for MIC: ATCC10536, Gram negative, read-out: minimum inhibitory concentration (MIC). As to the method:
as §1, §2

Experiment [8] concerns Klebsiella pneumonia (ATCC 10031). In words: Antibacterial test (MIC), comparison bacteria. The settings on record: for MIC: Klebsiella pneumoniae, ATCC10031, Gram negative, read-out: minimum inhibitory concentration (MIC). As to the method: as §1, §2
Experiment [9] relates to Streptococcus pneumonia (ATCC 6301). Kind of experiment: Antibacterial test (MIC), comparison bacteria. As to conditions: for MIC: Streptococcus pneumoniae, ATCC6301, Gram positive, read-out: minimum inhibitory concentration (MIC); for minimum inhibitory concentration (MIC): Gram positive. As to the method:
as §1, §2

Experiment [10] has as its system Salmonella typhimurium (ATCC 13311). In words: Antibacterial test (MIC), comparison bacteria. The settings on record: Gram negative; for MIC: Salmonella enterica, read-out: minimum inhibitory concentration (MIC). As to the method:
as §1, §2

Experiment [11] deals with Staphylococcus epidermidis (ATCC 12228). Kind of experiment: Antibacterial test (MIC), comparison bacteria. As to conditions: for MIC: ATCC12228, Gram positive, read-out: minimum inhibitory concentration (MIC). How it is done: as §1, §2
Experiment [12] concerns Helicobacter pylori (ATCC 43504). Kind of experiment: Antibacterial test (MIC) against Helicobacter pylori. As to conditions: for MIC: Helicobacter pylori; for minimum inhibitory concentration (MIC): Helicobacter pylori ATCC 43504. As to the method:
as §1, §2

The mark [13] stands for this setting: ATCC43504, 72 h, pH 7, Helicobacter pylori ATCC 43504, Columbia agar medium, 37° C., pH 7.0, cultured three days, MIC found on the fourth day, read-out: minimum inhibitory concentration (MIC).
The mark [14] stands for this setting: Columbia agar medium, 37° C., pH 7.0, cultured three days, MIC found on the fourth day.

SMILES strings stand for the structures. Values after ≈ are worked out from the molar mass of the structure shown. Where two headings read alike, the source gives them in different places. Some results are limits rather than exact numbers.

As to `Cc1c(OCCCCCCCCO)ccnc1SCc1nc2ccccc2[nH]1` [Example 13, 2-[[[4-(8-hydroxy-1-octyloxy)-3-methyl-2-pyridyl]thio]-methyl]-1H-benzimidazole], the MIC in experiment [1], in [2], in [3], in experiment [4], in experiment [5] and in experiment [6] was more than 100 µg/mL throughout. Also, the MIC in [7] is more than 100 µg/mL; in experiment [8], more than 100 µg/mL; in experiment [9] it was more than 100 µg/mL; in experiment [10], more than 100 µg/mL; in [11], more than 100 µg/mL; in experiment [12] (summary of Tables 2 and 3) it was 0.003 µg.
As to `Cc1c(SCCCCCCCCO)ccnc1SCc1nc2ccccc2[nH]1` [Example 2, 2-[[[4-[(8-hydroxy-octyl)thio]-3-methyl-2-pyridyl]thio]methyl]-1H-benzimidazole], the MIC in experiment [1], in experiment [2], in experiment [3], in experiment [4], in experiment [5] and in experiment [6] was more than 100 µg/mL each time. The MIC in experiment [7] is more than 100 µg/mL; in experiment [8], more than 100 µg/mL; in [9] it was more than 100 µg/mL; in [10], more than 100 µg/mL; in experiment [11] it was more than 100 µg/mL; in experiment [12] (summary of Tables 2 and 3), 0.003 µg.
Consider `COCCCCCCCCSc1ccnc(SCc2nc3ccccc3[nH]2)c1C.Cl` [Example 3, 2-[[[4-[(8-methoxy-1-octyl]thio]-3-methyl-2-pyridyl]thio]methyl]-1H-benzimidazole hydrochloride], for which the MIC in [1], in [2], in experiment [3], in experiment [4], in experiment [5] and in experiment [6] was more than 100 µg/mL throughout. Also, the MIC in [7] is more than 100 µg/mL; in experiment [8] it was more than 100 µg/mL; in experiment [9], more than 100 µg/mL; in experiment [10] it was more than 100 µg/mL; in [11], more than 100 µg/mL; in experiment [12] (setting [13]), 0.1 µg/mL.
Turning to `CCOCCCOc1ccnc(SCc2nc3ccccc3[nH]2)c1C` [Example 11], the MIC in experiment [1], in [2], in experiment [3], in experiment [4], in experiment [5] and in experiment [6] was more than 100 µg/mL throughout. In addition, the MIC is more than 100 µg/mL in [7]; more than 100 µg/mL in experiment [8]; more than 100 µg/mL in experiment [9]; more than 100 µg/mL in experiment [10]; more than 100 µg/mL in [11]; 0.1 µg/mL (≈ 0.28 µM) in [12] (setting [13]).
On to `CCCSc1ccnc(SCc2nc3ccccc3[nH]2)c1C.Cl` [Example 6, 2-[[(4-thiopropyl-3-methyl-2-pyridyl)thio]-methyl]-1H-benzimidazole hydrochloride], for which the “minimum inhibitory concentration (MIC)” value in experiment [1] (Gram negative), in [2], in experiment [3] (Gram positive), in experiment [4], in [5] (Gram negative) and in experiment [6] was 100< μg/ml in each case. For the same compound, the “minimum inhibitory concentration (MIC)” value was 100< μg/ml in experiment [7] (Gram negative); 100< μg/ml in experiment [8] (Gram negative); 100< μg/ml in experiment [9]; 100< μg/ml in experiment [10]; 100< μg/ml in experiment [11] (Gram positive); 0.3 µg/mL in experiment [12] (setting [14]).
Take `CCCCCOc1ccnc(SCc2nc3ccccc3[nH]2)c1C.Cl` [Example 10, 2-[[(4-pentyloxy-3-methyl-2-pyridyl)thio]-methyl]-1H-benzimidazole hydrochloride]: the MIC in experiment [1], in experiment [2], in [3], in experiment [4], in [5] and in [6] was more than 100 µg/mL in each case. Moreover, the MIC was more than 100 µg/mL in experiment [7]; more than 100 µg/mL in experiment [8]; more than 100 µg/mL in [9]; more than 100 µg/mL in experiment [10]; more than 100 µg/mL in [11]; 0.1 µg/mL in experiment [12] (setting [13]).
As to `CC1(C)S[C@@H]2[C@H](NC(=O)[C@H](N)c3ccc(O)cc3)C(=O)N2[C@H]1C(=O)O` [AMPC, Amoxicillin, reference compound], the “minimum inhibitory concentration (MIC)” value in [2] is 100< μg/ml; in experiment [4], 0.1 µg/mL (≈ 0.274 µM); in experiment [6], 0.3 µg/mL (≈ 0.821 µM); in experiment [9], 0.01 µg/mL (≈ 0.0274 µM); in experiment [10] it was 0.3 µg/mL (≈ 0.821 µM); in experiment [12] (setting [14]), 0.06 µg/mL (≈ 0.164 µM).
On to `CCCOc1ccnc(SCc2nc3ccccc3[nH]2)c1C.Cl` [Example 4, 2-[[(4-n-propoxy-3-methyl-2-pyridyl)thio]-methyl]-1H-benzimidazole hydrochloride], for which the MIC in experiment [1], in experiment [2], in [3], in [4], in [5] and in experiment [6] was more than 100 µg/mL each time. Further, the MIC in experiment [7] was more than 100 µg/mL; in [8], more than 100 µg/mL; in experiment [9] it was more than 100 µg/mL; in experiment [10], more than 100 µg/mL; in experiment [11], more than 100 µg/mL; in experiment [12] (setting [13]), 0.3 µg/mL.
With `COCCCCCCCCOc1ccnc(SCc2nc3ccccc3[nH]2)c1C.Cl` [Example 14, 2-[[[4-(8-methoxy-1-octyloxy]-3-methyl-2-pyridyl]thio]-methyl]-1H-benzimidazole hydrochloride], the MIC in experiment [1], in experiment [2], in experiment [3], in experiment [4], in [5] and in experiment [6] was more than 100 µg/mL each time. Besides, the MIC in experiment [7], in experiment [8], in experiment [9], in experiment [10] and in experiment [11] was more than 100 µg/mL each time.
Consider `CC[C@H]1OC(=O)[C@H](C)[C@@H](O[C@H]2C[C@@](C)(OC)[C@@H](O)[C@H](C)O2)[C@H](C)[C@@H](O[C@@H]2O[C@H](C)C[C@H](N(C)C)[C@H]2O)[C@](C)(OC)C[C@@H](C)C(=O)[C@H](C)[C@@H](O)[C@]1(C)O` [CAM, Clarithromycin, reference compound], for which the MIC in experiment [1] was 50 µg/mL (≈ 66.8 µM); in [2], more than 100 µg/mL; in experiment [4] it was 0.1 µg/mL (≈ 0.134 µM); in experiment [5], 100 µg/mL (≈ 134 µM); in experiment [6], 0.1 µg/mL (≈ 0.134 µM); in experiment [7] it was 50 µg/mL (≈ 66.8 µM). Further, the MIC is 0.02 µg/mL (≈ 0.0267 µM) in experiment [9], 25 µg/mL (≈ 33.4 µM) in [10] and 0.1 µg/mL (≈ 0.134 µM) in experiment [12] (setting [13]).

These data come from patent US20120041030A1, “PYRIDINE THIO DERIVATIVE, AND PHARMACEUTICAL COMPOSITION WHICH CONTAINS SAME AND HAS ANTI-HELICOBACTER PYLORI ACTION” (priority 2009, published 2012).
